Results reported in patent US20120178666A1 (SHIRE LLC, priority 2009, published 2012).
Where a name gives a salt, the structure may show the parent alone. Read-outs that look alike come from different tables or passages of the source. Values belong to the compound of their own block, whether it stands above or below them.

Columns and labels:
[1] = Comparative bioavailability study of guanfacine in monkeys (full pharmacokinetics); assay type: in vivo, cynomolgus monkey; settings: oral gavage, monkey
Method: The characteristics of the test animals are set out in Table 13.
The following pharmacokinetic parameters derived from the plasma analytical data were determined using Win Nonlin;

gut motility = assay: Charcoal propulsion test (gut motility); assay type: in vivo, rat; settings: Rattus norvegicus, po, read-out: % inhibition of GIT transit compard to vehicle
Method: The effect of a drug on gut motility can be studied by means of the charcoal propulsion test.
The method used was based on that described by Takemori et al. (J. Pharmacol. Exp. Ther. 169:39, 1969). Test treatments were administered orally 60 minutes prior to an oral dose of a 10% suspension of charcoal in 2.5% gum Arabic (2 ml/kg). Twenty minutes after dosing with charcoal, the rats were sacrificed and the entire gastrointestinal tract was removed quickly and carefully. The distance that the charcoal meal had travelled toward the caecum was measured and expressed as a percentage of the total gut length.

[2] = Prodrug stability in simulated gastric fluid (USP); settings: 37° C.
Method: (§1) The remaining concentrations of the prodrugs were then assayed by HPLC.

[3] = Prodrug stability in simulated intestinal fluid (USP); settings: 37° C.
Method: as §1

[4] = Comparative bioavailability study in monkeys in the fasted or fed state; assay type: in vivo, cynomolgus monkey; settings: Fasted, 0.5 mg/kg guanfacine equivalent, oral
Method: Five male cynomolgus monkeys were used. Food was withdrawn from animals in fasted groups from the evening of the day prior to dosing until approximately 4 hours after dosing.
The formulations were prepared on the day of dosing and administered orally as soon as practicable up to a maximum of 2 hours after formulation.
Blood samples (0.5 mL) were collected from all animals pre-dose and at 0.5, 1, 2, 3, 4, 6, 8 10, 12, 16 and 24 hours after dosing.
Following processing, the resultant plasma was frozen and analysed by a qualified method. Pharmacokinetic evaluation was performed using a validated pharmacokinetic software package.

[5] = Comparative pharmacokinetic screening study of guanfacine prodrugs in the monkey; settings: oral gavage
Method: Blood samples were taken on 4 sampling occasions at various times up to 6 hours after administration and submitted to analysis for the parent drug and prodrug using a qualified LC-MS-MS assay.

[6] = Study 1, oral dose 0.1 mg/kg guanfacine free base equivalents
[7] = Study 1, oral dose 0.3 mg/kg guanfacine free base equivalents
[8] = Study 1, oral dose 1 mg/kg guanfacine free base equivalents
[9] = Study 1, oral dose 3 mg/kg guanfacine free base equivalents
[10] = Study 1, oral dose 5 mg/kg guanfacine free base equivalents

Structure (SMILES): CC(C)[C@H](NC(=O)CCCC(=O)NC(=N)NC(=O)Cc1c(Cl)cccc1Cl)C(=O)O [Compound 1, guanfacine-[glutaryl-(S)-valine] amide trifluoroacetate]
plasma guanfacine profile (in words) [1]: sustained guanfacine concentrations
inhibition at 0.1 mg/kg (gut motility): 9%
inhibition at 0.3 mg/kg (gut motility): 6%
inhibition at 1 mg/kg (gut motility): 45%
inhibition at 3 mg/kg (gut motility): 50%
inhibition at 5 mg/kg (gut motility): 53%
% prodrug remaining following incubation for: 1 h in simulated gastric fluid pH 1.1 [2]: 80%
% prodrug remaining following incubation for: 2 h in simulated intestinal fluid pH 6.8 [3]: 92%

Structure (SMILES): CC(C)[C@H](N)C(=O)NCCC(=O)NC(=N)NC(=O)Cc1c(Cl)cccc1Cl [Compound 2, guanfacine-β-alanine-(S)-valine amide di-trifluoroacetate]
mean Cmax (ng/mL) prodrug [4]: BLQ
inhibition at 0.1 mg/kg (gut motility; [6]): -3%
inhibition at 0.3 mg/kg (gut motility; [7]): 30%
inhibition at 1 mg/kg (gut motility; [8]): 42%
inhibition at 3 mg/kg (gut motility; [9]): 42%
inhibition at 5 mg/kg (gut motility; [10]): 42%
% prodrug remaining following incubation for: 1 h in simulated gastric fluid pH 1.1 [2]: 75%
% prodrug remaining following incubation for: 2 h in simulated intestinal fluid pH 6.8 [3]: 89%
prodrug levels in plasma (in words) [5]: detectable prodrug levels in plasma

Structure (SMILES): CC(C)[C@@H](N)C(=O)N[C@@H](CCC(=O)NC(=N)NC(=O)Cc1c(Cl)cccc1Cl)C(=O)O [Compound 5, guanfacine-γ-(S)-glutamic acid-(R)-valine amide di-trifluoroacetate]
plasma guanfacine profile (in words) [1]: sustained guanfacine concentrations
inhibition at 0.1 mg/kg (gut motility; [6]): 6%
inhibition at 0.3 mg/kg (gut motility; [7]): 22%
inhibition at 1 mg/kg (gut motility; [8]): 48%
inhibition at 1.7 mg/kg (gut motility; Study 1, oral dose 1.7 mg/kg guanfacine free base equivalents): 50%
inhibition at 3 mg/kg (gut motility; [9]): 44%
inhibition at 5 mg/kg (gut motility; [10]): 42%
% prodrug remaining following incubation for: 1 h in simulated gastric fluid pH 1.1 [2]: 86%
% prodrug remaining following incubation for: 2 h in simulated intestinal fluid pH 6.8 [3]: 89%

Structure (SMILES): CN(CC(=O)O)C(=O)NC(=N)NC(=O)Cc1c(Cl)cccc1Cl [Compound 9, Guanfacine Sarcosine Urea]
prodrug levels in plasma (in words) [5]: high prodrug levels

Structure (SMILES): CC(C)[C@@H](N)C(=O)NCCC(=O)NC(=N)NC(=O)Cc1c(Cl)cccc1Cl [Compound 11, Guanfacine β-Alanine-(R)-Valine Amide]
% prodrug remaining following incubation for: 1 h in simulated gastric fluid pH 1.1 [2]: 79%
prodrug levels in plasma (in words) [5]: detectable prodrug levels in plasma

Structure (SMILES): CC(C)[C@H](N)C(=O)N[C@@H](COC(=O)NC(=N)NC(=O)Cc1c(Cl)cccc1Cl)C(=O)O [Compound 17, (S)-Valine-(S)-Serine(Guanfacine) Carbamate]
% prodrug remaining following incubation for: 1 h in simulated gastric fluid pH 1.1 [2]: 93%
% prodrug remaining following incubation for: 2 h in simulated intestinal fluid pH 6.8 [3]: 78%
prodrug levels in plasma (in words) [5]: total absence of prodrug in the plasma

Structure (SMILES): O=C(O)CC[C@@H]1N=C(NC(=O)Cc2c(Cl)cccc2Cl)NC1=O [Compound 37, Guanfacine-(S)-Glutamic Cyclic adduct]
% prodrug remaining following incubation for: 1 h in simulated gastric fluid pH 1.1 [2]: 58%
% prodrug remaining following incubation for: 2 h in simulated intestinal fluid pH 6.8 [3]: 110%
prodrug levels in plasma (in words) [5]: high prodrug levels

Structure (SMILES): C[C@@H](N)C(=O)N[C@@H](CCC(=O)NC(=N)NC(=O)Cc1c(Cl)cccc1Cl)C(=O)O [Compound 41, (R)-Alanine-(S)-γ-Glutamate(Guanfacine) Amide]
% prodrug remaining following incubation for: 1 h in simulated gastric fluid pH 1.1 [2]: 70%
% prodrug remaining following incubation for: 2 h in simulated intestinal fluid pH 6.8 [3]: 83%
prodrug levels in plasma (in words) [5]: detectable prodrug levels in plasma

Structure (SMILES): N=C(NC(=O)CC[C@H](NC(=O)[C@H](N)CCC(N)=O)C(=O)O)NC(=O)Cc1c(Cl)cccc1Cl [Compound 46, (R)-Glutamine-(S)-γ-Glutamate(Guanfacine) Amide]
% prodrug remaining following incubation for: 1 h in simulated gastric fluid pH 1.1 [2]: 61%
% prodrug remaining following incubation for: 2 h in simulated intestinal fluid pH 6.8 [3]: 81%

Structure (SMILES): N=C(NC(=O)CC[C@H](NC(=O)[C@H](N)CO)C(=O)O)NC(=O)Cc1c(Cl)cccc1Cl [Compound 47, (R)-Serine-(S)-γ-Glutamate(Guanfacine) Amide]
% prodrug remaining following incubation for: 1 h in simulated gastric fluid pH 1.1 [2]: 72%
% prodrug remaining following incubation for: 2 h in simulated intestinal fluid pH 6.8 [3]: 89%

Continued, values first:

% prodrug remaining following incubation for: 1 h in simulated gastric fluid pH 1.1 [2]: 85%
% prodrug remaining following incubation for: 2 h in simulated intestinal fluid pH 6.8 [3]: 81%
Structure (SMILES): CCC(C)[C@@H](N)C(=O)NCCCC(=O)NC(=N)NC(=O)Cc1c(Cl)cccc1Cl (stereo partly drawn) [Compound 50, Guanfacine (GABA-(R)-Isoleucine) Amide]

% prodrug remaining following incubation for: 1 h in simulated gastric fluid pH 1.1 [2]: 84%
% prodrug remaining following incubation for: 2 h in simulated intestinal fluid pH 6.8 [3]: 97%
Structure (SMILES): N=C(NC(=O)Cc1c(Cl)cccc1Cl)NC(=O)c1ccc(N)cc1 [Compound 52, Guanfacine PABA Amide]

% prodrug remaining following incubation for: 1 h in simulated gastric fluid pH 1.1 [2]: 73%
% prodrug remaining following incubation for: 2 h in simulated intestinal fluid pH 6.8 [3]: 66%
Structure (SMILES): CC(C)[C@@H](N)C(=O)N[C@@H](C(=O)NC(=N)NC(=O)Cc1c(Cl)cccc1Cl)C(C)C [Compound 54, Guanfacine (R)-Valine-(R)-Valine Amide]

% prodrug remaining following incubation for: 1 h in simulated gastric fluid pH 1.1 [2]: 65%
% prodrug remaining following incubation for: 2 h in simulated intestinal fluid pH 6.8 [3]: 91%
Structure (SMILES): CC(C)[C@@H](NC(=O)c1ccc(N)cc1)C(=O)NC(=N)NC(=O)Cc1c(Cl)cccc1Cl [Compound 55, Guanfacine (R)-Valine-PABA Amide]

% prodrug remaining following incubation for: 1 h in simulated gastric fluid pH 1.1 [2]: 96%
% prodrug remaining following incubation for: 2 h in simulated intestinal fluid pH 6.8 [3]: 99%
Structure (SMILES): N=C(NC(=O)Cc1c(Cl)cccc1Cl)NC(=O)OCCNC(=O)CC[C@H](N)C(=O)O [Compound 58, Guanfacine (ethanolamine-(S)-γ-Glutamate) Carbamate]

% prodrug remaining following incubation for: 1 h in simulated gastric fluid pH 1.1 [2]: 92%
% prodrug remaining following incubation for: 2 h in simulated intestinal fluid pH 6.8 [3]: 100%
Structure (SMILES): CC[C@H](C)[C@H](N)C(=O)NCCOC(=O)NC(=N)NC(=O)Cc1c(Cl)cccc1Cl [Compound 59, Guanfacine (ethanolamine-(S)-Isoleucine) Carbamate]

% prodrug remaining following incubation for: 1 h in simulated gastric fluid pH 1.1 [2]: 81%
% prodrug remaining following incubation for: 2 h in simulated intestinal fluid pH 6.8 [3]: 97%
Structure (SMILES): N=C(NC(=O)CC[C@H](NC(=O)c1ccc(C(=O)O)cc1)C(=O)O)NC(=O)Cc1c(Cl)cccc1Cl [Compound 60, Terephthalic acid-(S)-γ-Glutamate(Guanfacine) Amide]

% prodrug remaining following incubation for: 1 h in simulated gastric fluid pH 1.1 [2]: 88%
% prodrug remaining following incubation for: 2 h in simulated intestinal fluid pH 6.8 [3]: 93%
Structure (SMILES): N=C(NC(=O)Cc1c(Cl)cccc1Cl)NC(=O)OC[C@H](NC(=O)CCN)C(=O)O [Compound 64, β-Alanine-(S)-Serine (Guanfacine) Carbamate]

% prodrug remaining following incubation for: 1 h in simulated gastric fluid pH 1.1 [2]: 90%
% prodrug remaining following incubation for: 2 h in simulated intestinal fluid pH 6.8 [3]: 99%
Structure (SMILES): N=C(NC(=O)Cc1c(Cl)cccc1Cl)NC(=O)OCC[C@H](N)C(=O)O [Compound 65, (S)-Homoserine Guanfacine Carbamate]

% prodrug remaining following incubation for: 1 h in simulated gastric fluid pH 1.1 [2]: 99%
% prodrug remaining following incubation for: 2 h in simulated intestinal fluid pH 6.8 [3]: 97%
Structure (SMILES): N=C(NC(=O)Cc1c(Cl)cccc1Cl)NC(=O)OCC[C@H](NC(=O)CCN)C(=O)O [Compound 67, β-Alanine-(S)-Homoserine (Guanfacine) Carbamate]

% prodrug remaining following incubation for: 1 h in simulated gastric fluid pH 1.1 [2]: 86%
% prodrug remaining following incubation for: 2 h in simulated intestinal fluid pH 6.8 [3]: 75%
Structure (SMILES): CC(C)(COC(=O)NC(=N)NC(=O)Cc1c(Cl)cccc1Cl)[C@@H](O)C(=O)NCCC(=O)O [Compound 68, Guanfacine Pantothenic acid Carbamate]

% prodrug remaining following incubation for: 1 h in simulated gastric fluid pH 1.1 [2]: 85%
% prodrug remaining following incubation for: 2 h in simulated intestinal fluid pH 6.8 [3]: 96%
Structure (SMILES): CC(C)(CO)[C@@H](O)C(=O)NCCCOC(=O)NC(=N)NC(=O)Cc1c(Cl)cccc1Cl [Compound 69, Guanfacine Panthenol Carbamate]

% prodrug remaining following incubation for: 1 h in simulated gastric fluid pH 1.1 [2]: 64%
% prodrug remaining following incubation for: 2 h in simulated intestinal fluid pH 6.8 [3]: 93%
Structure (SMILES): N=C(NC(=O)CC[C@H](NC(=O)c1ccc(N)cc1)C(=O)O)NC(=O)Cc1c(Cl)cccc1Cl [Compound 70, Guanfacine PABA-(S)-Glutamate (Guanfacine) Amide]

% prodrug remaining following incubation for: 1 h in simulated gastric fluid pH 1.1 [2]: 91%
% prodrug remaining following incubation for: 2 h in simulated intestinal fluid pH 6.8 [3]: 89%
Structure (SMILES): CNCC(=O)NCCOC(=O)NC(=N)NC(=O)Cc1c(Cl)cccc1Cl [Compound 71, Guanfacine ethanolamine-Sarcosine Carbamate]
